# From patent US10233173B2, “Substituted 1,2,3-triazoles as NR2B-selective NMDA modulators” (JANSSEN PHARMACEUTICA NV, priority 2016, dated 2019)
# Target: human GluN1/GluN2B NMDA receptors (Homo sapiens, UniProt Q05586+Q13224)
# Test: Cell-based calcium flux (FLIPR) assay on cloned human NR1/NR2B ion channels expressed in mammalian cells
# Settings: standard assay; human GluN1/GluN2B, calcium flux (FLIPR), glutamate ~EC80
# In short: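 Calcium influx followed by FLIPR fluorescence after 5 min compound exposure and a further 5 min co-agonist challenge: 10 μM glycine with glutamate at ~EC80 (standard) or EC40 (HTS).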
# human GluN1/GluN2B NMDA receptors, sequence (Q13224 27-1484, other chains not shown): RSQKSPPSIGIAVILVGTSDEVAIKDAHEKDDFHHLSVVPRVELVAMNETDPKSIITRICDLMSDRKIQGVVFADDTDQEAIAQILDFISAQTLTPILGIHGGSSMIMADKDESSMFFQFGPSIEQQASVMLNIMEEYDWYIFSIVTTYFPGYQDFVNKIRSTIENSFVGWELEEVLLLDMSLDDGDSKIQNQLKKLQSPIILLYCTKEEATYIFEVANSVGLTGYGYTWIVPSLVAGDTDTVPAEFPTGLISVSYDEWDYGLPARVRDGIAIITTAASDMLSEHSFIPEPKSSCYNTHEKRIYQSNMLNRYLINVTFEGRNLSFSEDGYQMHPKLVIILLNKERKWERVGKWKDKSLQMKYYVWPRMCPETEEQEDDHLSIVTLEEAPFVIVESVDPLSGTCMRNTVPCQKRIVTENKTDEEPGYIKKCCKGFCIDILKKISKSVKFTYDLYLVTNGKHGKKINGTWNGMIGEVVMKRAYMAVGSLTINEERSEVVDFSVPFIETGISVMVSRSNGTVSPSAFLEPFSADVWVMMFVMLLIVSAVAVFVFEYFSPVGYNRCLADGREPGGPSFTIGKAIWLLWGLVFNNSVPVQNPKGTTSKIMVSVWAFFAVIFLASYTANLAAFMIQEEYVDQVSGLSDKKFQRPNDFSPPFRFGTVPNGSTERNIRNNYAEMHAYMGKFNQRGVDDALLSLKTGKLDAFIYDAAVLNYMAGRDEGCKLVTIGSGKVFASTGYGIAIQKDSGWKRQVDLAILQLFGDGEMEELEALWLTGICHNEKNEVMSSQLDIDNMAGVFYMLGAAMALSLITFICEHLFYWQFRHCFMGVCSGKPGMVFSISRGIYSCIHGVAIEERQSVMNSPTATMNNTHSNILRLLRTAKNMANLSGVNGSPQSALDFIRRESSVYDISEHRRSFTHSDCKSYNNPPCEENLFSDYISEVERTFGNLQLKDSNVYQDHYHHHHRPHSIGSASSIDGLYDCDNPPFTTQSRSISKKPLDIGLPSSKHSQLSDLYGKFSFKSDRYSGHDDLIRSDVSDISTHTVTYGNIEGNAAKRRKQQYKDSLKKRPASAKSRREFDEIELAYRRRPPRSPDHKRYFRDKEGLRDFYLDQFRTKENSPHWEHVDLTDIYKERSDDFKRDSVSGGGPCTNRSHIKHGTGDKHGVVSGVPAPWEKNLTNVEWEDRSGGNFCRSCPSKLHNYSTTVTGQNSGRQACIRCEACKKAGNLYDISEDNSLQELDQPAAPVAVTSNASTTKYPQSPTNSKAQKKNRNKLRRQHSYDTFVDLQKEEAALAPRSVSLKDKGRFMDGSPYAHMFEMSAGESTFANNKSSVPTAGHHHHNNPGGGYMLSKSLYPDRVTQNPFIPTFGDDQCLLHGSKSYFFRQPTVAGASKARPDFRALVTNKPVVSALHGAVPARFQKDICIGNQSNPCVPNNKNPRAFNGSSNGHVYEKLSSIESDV
row,Structure (SMILES),IC50 [µM]
1,"Fc1cnc(OCc2cn(-c3ccc(Cl)c(OC(F)F)c3)nn2)nc1 [Example 95, 2-[[1-[4-Chloro-3-(difluoromethoxy)phenyl]triazol-4-yl]methoxy]-5-fluoro-pyrimidine]",0.023
2,"FC(F)Oc1cc(-n2cc(COc3ncc(C(F)F)cn3)nn2)ccc1Cl [Example 96, 2-[[1-[4-Chloro-3-(difluoromethoxy)phenyl]triazol-4-yl]methoxy]-5-(difluoromethyl)pyrimidine]",0.008
3,"FC(F)Oc1cc(-n2cc(CNc3ncco3)nn2)ccc1Cl [Example 97, N-[[1-[4-Chloro-3-(difluoromethoxy)phenyl]triazol-4-yl]methyl]oxazol-2-amine]",0.106
4,"FC(F)Oc1cc(-n2cc(CNc3ncccn3)nn2)ccc1Cl [Example 98, N-[[1-[4-Chloro-3-(difluoromethoxy)phenyl]triazol-4-yl]methyl]pyrimidin-2-amine]",0.331
5,"Cn1cc(NCc2cn(-c3ccc(F)c(C(F)F)c3)nn2)cn1 [Example 99, N-[[1-[3-(Difluoromethyl)-4-fluoro-phenyl]triazol-4-yl]methyl]-1-methyl-pyrazol-4-amine]",5.05
6,"Cn1ccc(NCc2cn(-c3ccc(F)c(C(F)F)c3)nn2)n1 [Example 100, N-[[1-[3-(Difluoromethyl)-4-fluoro-phenyl]triazol-4-yl]methyl]-1-methyl-pyrazol-3-amine]",0.894
7,"Cn1ccc(NCc2cn(-c3ccc(F)c(OC(F)F)c3)nn2)n1 [Example 101, N-[[1-[3-(Difluoromethoxy)-4-fluoro-phenyl]triazol-4-yl]methyl]-1-methyl-pyrazol-3-amine]",0.374
8,"Cn1cc(NCc2cn(-c3ccc(F)c(OC(F)F)c3)nn2)cn1 [Example 102, N-[[1-[3-(Difluoromethoxy)-4-fluoro-phenyl]triazol-4-yl]methyl]-1-methyl-pyrazol-4-amine]",3.25
9,"COc1ncccc1OCc1cn(-c2ccc(Cl)c(OC(F)F)c2)nn1 [Example 103, 3-[[1-[4-Chloro-3-(difluoromethoxy)phenyl]triazol-4-yl]methoxy]-2-methoxy-pyridine]",0.064
10,"Cc1ccc(OCc2cn(-c3ccc(Cl)c(OC(F)F)c3)nn2)cn1 [Example 104, 5-[[1-[4-Chloro-3-(difluoromethoxy)phenyl]triazol-4-yl]methoxy]-2-methyl-pyridine]",0.729
11,"FC(F)Oc1cc(-n2cc(COc3ncccc3Cl)nn2)ccc1Cl [Example 105, 3-Chloro-2-[[1-[4-chloro-3-(difluoromethoxy)phenyl]triazol-4-yl]methoxy]pyridine]",0.059
12,"COc1cc(Cl)cnc1OCc1cn(-c2ccc(Cl)c(OC(F)F)c2)nn1 [Example 106, 5-Chloro-2-[[1-[4-chloro-3-(difluoromethoxy)phenyl]triazol-4-yl]methoxy]-3-methoxy-pyridine]",0.276
13,"Fc1cccnc1OCc1cn(-c2ccc(Cl)c(OC(F)F)c2)nn1 [Example 107, 2-[[1-[4-Chloro-3-(difluoromethoxy)phenyl]triazol-4-yl]methoxy]-3-fluoro-pyridine]",0.119
14,"COc1cccnc1OCc1cn(-c2ccc(Cl)c(OC(F)F)c2)nn1 [Example 108, 2-[[1-[4-Chloro-3-(difluoromethoxy)phenyl]triazol-4-yl]methoxy]-3-methoxy-pyridine]",0.114
15,"FC(F)c1cc(-n2cc(CNc3ncccn3)nn2)ccc1Cl [Example 109, N-[[1-[4-Chloro-3-(difluoromethyl)phenyl]triazol-4-yl]methyl]pyrimidin-2-amine]",1.26
16,"FC(F)c1cc(-n2cc(CNc3ccncn3)nn2)ccc1Cl [Example 110, N-[[1-[4-Chloro-3-(difluoromethyl)phenyl]triazol-4-yl]methyl]pyrimidin-4-amine]",7.57

row,Structure (SMILES),IC50 [µM]
1,"Fc1ccc(-n2cc(COc3ccccn3)nn2)cc1C(F)F [Example 111, 2-[[1-[3-(Difluoromethyl)-4-fluoro-phenyl]triazol-4-yl]methoxy]pyridine]",0.684
2,"Fc1ccc(-n2cc(COc3ccc(Cl)cn3)nn2)cc1C(F)F [Example 112, 5-Chloro-2-[[1-[3-(difluoromethyl)-4-fluoro-phenyl]triazol-4-yl]methoxy]pyridine]",0.056
3,"Cc1cccc(OCc2cn(-c3ccc(F)c(C(F)F)c3)nn2)n1 [Example 113, 2-[[1-[3-(Difluoromethyl)-4-fluoro-phenyl]triazol-4-yl]methoxy]-6-methyl-pyridine]",0.038
4,"Cc1ccc(OCc2cn(-c3ccc(F)c(C(F)F)c3)nn2)nc1 [Example 114, 2-[[1-[3-(Difluoromethyl)-4-fluoro-phenyl]triazol-4-yl]methoxy]-5-methyl-pyridine]",0.021
5,"Cc1ccnc(OCc2cn(-c3ccc(F)c(C(F)F)c3)nn2)c1 [Example 115, 2-[[1-[3-(Difluoromethyl)-4-fluoro-phenyl]triazol-4-yl]methoxy]-4-methyl-pyridine]",0.17
6,"Cc1ccnc(OCc2cn(-c3ccc(F)c(OC(F)F)c3)nn2)c1 [Example 116, 2-[[1-[3-(Difluoromethoxy)-4-fluoro-phenyl]triazol-4-yl]methoxy]-4-methyl-pyridine]",0.102
7,"Fc1ccc(-n2cc(COc3ccc(Cl)cn3)nn2)cc1OC(F)F [Example 117, 5-Chloro-2-[[1-[3-(difluoromethoxy)-4-fluoro-phenyl]triazol-4-yl]methoxy]pyridine]",0.073
8,"Cc1ccc(OCc2cn(-c3ccc(F)c(OC(F)F)c3)nn2)nc1 [Example 118, 2-[[1-[3-(Difluoromethoxy)-4-fluoro-phenyl]triazol-4-yl]methoxy]-5-methyl-pyridine]",0.026
9,"Fc1ccc(-n2cc(COc3ccc(C(F)(F)F)cn3)nn2)cc1OC(F)F [Example 119, 2-[[1-[3-(Difluoromethoxy)-4-fluoro-phenyl]triazol-4-yl]methoxy]-5-(trifluoromethyl)pyridine]",0.114
10,"Cc1cnc(OCc2cn(-c3ccc(C(F)(F)F)s3)nn2)nc1 [Example 120, 5-Methyl-2-((1-(5-(trifluoromethyl)thiophen-2-yl)-1H-1,2,3-triazol-4-yl)methoxy)pyrimidine]",0.005
11,Cc1cnc(OCc2nnn(-c3cccc(C(F)F)c3)c2C)nc1 [Example 149],0.952
12,"FC(F)c1cccc(-n2cc(CNc3ncc(Cl)cn3)nn2)c1 [Example 153, 5-Chloro-N-[[1-[3-(difluoromethyl)phenyl]triazol-4-yl]methyl]pyrimidin-2-amine]",0.216
13,"Cc1cnc(NCc2cn(-c3ccc(Cl)c(C(F)F)c3)nn2)nc1 [Example 154, N-[[1-[4-Chloro-3-(difluoromethyl)phenyl]triazol-4-yl]methyl]-5-methyl-pyrimidin-2-amine]",0.03
14,"Cc1cnc(OCc2cn(-c3cccc(C(F)F)c3)nn2)nc1C [Example 155, 2-[[1-[3-(Difluoromethyl)phenyl]triazol-4-yl]methoxy]-4,5-dimethyl-pyrimidine]",0.006
15,"CC(=O)c1cnc(OCc2cn(-c3ccc(F)c(C(F)F)c3)nn2)nc1 [Example 156, 1-[2-[[1-[3-(Difluoromethyl)-4-fluoro-phenyl]triazol-4-yl]methoxy]pyrimidin-5-yl]ethanone]",0.005
16,"Fc1ccc(-n2cc(COc3ccccn3)nn2)cc1C(F)(F)F [Example 158, 2-[[1-[4-Fluoro-3-(trifluoromethyl)phenyl]triazol-4-yl]methoxy]pyridine]",3.04
